Measured values as given in US6706663B2, “Herbicidal 3-heterocyclic substituted benzisothiazole and benzisoxazole compounds” (Wyeth, priority 2000, dated 2004).

Experiments:
[1] = tested on: SAGPY (Sagittaria pygmaea); assay: Flooded paddy, preemergence weed control; assay type: in vivo, L.; settings: rated 3-4 weeks after treatment, 0-9 rating scale
Outline: (§1)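 In this preemergence paddy assay, weed seeds or organs are sown at up to 0.5 cm in silt loam and covered by 1.5–3 cm of water for the full test period. After treatment the pots are kept in a greenhouse, and herbicidal effect is rated 0-9 visually against a control.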

[2] = tested on: TRZAWR (Wheat, Winter, cv Riband); assay: Preemergence herbicidal evaluation; assay type: in vivo, Triticum aestivum; settings: rated 4-5 weeks after treatment
Outline: (§2)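 Visual 0–9 rating versus control (stand, vigor, malformation, size, chlorosis, overall appearance), scored four to five weeks post-treatment. Preemergence spray of aqueous acetone solution onto freshly seeded soil cups; plants grown under conventional greenhouse care.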

ORYSAT (Rice, Tebonnet) = assay: Preemergence herbicidal evaluation; assay type: in vivo, Oryza sativa, (L.) Tebonnet; settings: rated 4-5 weeks after treatment
[3] = tested on: GLXMAW (Soybean, Williams); assay: Postemergence herbicidal evaluation; assay type: in vivo, Glycine max, (L.) Merr. cv Williams
Outline: (§3)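 Seedlings grown about two weeks in flats, sprayed, then kept under standard greenhouse care. Rated visually 4–5 weeks after treatment on a 0–9 scale (stand, vigour, malformation, size, chlorosis, overall appearance) relative to untreated control; repeat tests averaged.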

ZEAMX (Corn, Field) [4] = assay: Postemergence herbicidal evaluation; assay type: in vivo, Zea mays, L.; settings: for ZEAMX herbicidal rating: postemergence
Outline: as §3

ZEAMX (Corn, Field) [5] = assay: Preemergence herbicidal evaluation; assay type: in vivo, Zea mays, L.; settings: rated 4-5 weeks after treatment
[6] = tested on: ABUTH (Abutilon theophrasti); assay: Postemergence herbicidal evaluation; assay type: in vivo, Medic.; settings: for ABUTH herbicidal rating: postemergence
Outline: as §3

GALAP (Galium aparine) [7] = assay: Preemergence herbicidal evaluation; assay type: in vivo; settings: rated 4-5 weeks after treatment
Outline: as §2

[8] = tested on: CHEAL (Chenopodium album); assay: Preemergence herbicidal evaluation; assay type: in vivo, L.; settings: rated 4-5 weeks after treatment
Outline: as §2

[9] = tested on: CASOB (Cassia obtusifolia); assay: Preemergence herbicidal evaluation; assay type: in vivo, L.; settings: rated 4-5 weeks after treatment
Outline: as §2

[10] = tested on: AMBEL (Ambrosia artemisifolia); assay: Preemergence herbicidal evaluation; assay type: in vivo, L.; settings: rated 4-5 weeks after treatment
Outline: as §2

[11] = tested on: ECHORC (Echinochloa oryzoides); assay: Flooded paddy, preemergence weed control; assay type: in vivo, Echinochloa oryzoides (Ard.) Fritsch.; settings: rated 3-4 weeks after treatment, 0-9 rating scale
Outline: as §1

CYPIR (Cyperus iria) = assay: Flooded paddy, preemergence weed control; assay type: in vivo; settings: rated 3-4 weeks after treatment, 0-9 rating scale
Outline: as §1

[12] = tested on: IPOHE (Ipomoea hederacea); assay: Postemergence herbicidal evaluation; assay type: in vivo, (L.) Jacq.; settings: for IPOHE herbicidal rating: postemergence
Outline: as §3

[13] = tested on: CHEAL (Chenopodium album); assay: Postemergence herbicidal evaluation; assay type: in vivo, L.; settings: for CHEAL herbicidal rating: postemergence
Outline: as §3

[14] = tested on: CASOB (Cassia obtusifolia); assay: Postemergence herbicidal evaluation; assay type: in vivo, L.
Outline: as §3

[15] = tested on: AMBEL (Ambrosia artemisifolia); assay: Postemergence herbicidal evaluation; assay type: in vivo, L.; settings: for AMBEL herbicidal rating: postemergence
Outline: as §3

[16] = tested on: GLXMAW (Soybean, Williams); assay: Preemergence herbicidal evaluation; assay type: in vivo, Glycine max, (L.) Merr. cv Williams; settings: rated 4-5 weeks after treatment
[17] = tested on: CYPSE (Cyperus serotinus); assay: Flooded paddy, preemergence weed control; assay type: in vivo, Rottb.; settings: rated 3-4 weeks after treatment, 0-9 rating scale
Outline: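 Herbicidal effect was scored visually on a 0–9 scale against an untreated control 3–4 weeks after treatment. Compounds were applied preemergence as 50/50 v/v aqueous/acetone mixtures into flood water (1.5–3 cm deep over silt loam), at roughly 0.0080 to 0.1250 kg/ha active ingredient.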

[18] = tested on: IPOHE (Ipomoea hederacea); assay: Preemergence herbicidal evaluation; assay type: in vivo, (L.) Jacq.; settings: rated 4-5 weeks after treatment
[19] = tested on: ECHCG (Echinochloa crus-galli); assay: Postemergence herbicidal evaluation; assay type: in vivo, (L.) Beau; settings: for ECHCG herbicidal rating: postemergence
Outline: as §3

GALAP (Galium aparine) [20] = assay: Postemergence herbicidal evaluation; assay type: in vivo
Outline: as §3

[21] = postemergence, rate 0.0320 kg/ha

## Cn1ccnc1-c1nsc2ccc(-n3c(=O)cc(C(F)(F)F)n(C)c3=O)cc12 [Compound 5, 1-methyl-3-[3-(1-methylimidazol-2-yl)-1,2-benzisothiazol-5-yl]-6-(trifluoromethyl)uracil]
[1]; rate 0.0320 kg/ha
  herbicidal rating, SAGPY: 0.0
[1]; rate 0.1250 kg/ha
  herbicidal rating, SAGPY: 0.0
[2]; Rate 0.0620 kg/ha
  TRZAWR preemergence herbicidal rating: 5.0
[2]; Rate 0.1250 kg/ha
  TRZAWR preemergence herbicidal rating: 7.0
[2]; Rate 0.2500 kg/ha
  TRZAWR preemergence herbicidal rating: 8.0
ORYSAT (Rice, Tebonnet); Rate 0.0620 kg/ha
  ORYSAT preemergence herbicidal rating: 3.0
ORYSAT (Rice, Tebonnet); Rate 0.1250 kg/ha
  ORYSAT preemergence herbicidal rating: 5.0
ORYSAT (Rice, Tebonnet); Rate 0.2500 kg/ha
  ORYSAT preemergence herbicidal rating: 7.5
[3]; rate 0.0320 kg/ha
  Postemergence herbicidal rating, GLXMAW: 5.5
[3]; rate 0.0620 kg/ha
  Postemergence herbicidal rating, GLXMAW: 6.0
ZEAMX (Corn, Field) [4]; rate 0.0320 kg/ha
  Postemergence herbicidal rating, ZEAMX: 4.5
ZEAMX (Corn, Field) [4]; rate 0.0620 kg/ha
  Postemergence herbicidal rating, ZEAMX: 5.5
ZEAMX (Corn, Field) [5]; Rate 0.0620 kg/ha
  ZEAMX preemergence herbicidal rating: 4.0
ZEAMX (Corn, Field) [5]; Rate 0.1250 kg/ha
  ZEAMX preemergence herbicidal rating: 6.5
ZEAMX (Corn, Field) [5]; Rate 0.2500 kg/ha
  ZEAMX preemergence herbicidal rating: 7.0
[6]; rate 0.0320 kg/ha
  Postemergence herbicidal rating, ABUTH: 9.0
[6]; rate 0.0620 kg/ha
  Postemergence herbicidal rating, ABUTH: 9.0
GALAP (Galium aparine) [7]; Rate 0.0620 kg/ha
  GALAP preemergence herbicidal rating: 4.0
GALAP (Galium aparine) [7]; Rate 0.1250 kg/ha
  GALAP preemergence herbicidal rating: 5.0
GALAP (Galium aparine) [7]; Rate 0.2500 kg/ha
  GALAP preemergence herbicidal rating: 7.0
[8]; Rate 0.0620 kg/ha
  CHEAL preemergence herbicidal rating: 9.0
[8]; Rate 0.1250 kg/ha
  CHEAL preemergence herbicidal rating: 9.0
[8]; Rate 0.2500 kg/ha
  CHEAL preemergence herbicidal rating: 9.0
[9]; Rate 0.0620 kg/ha
  CASOB preemergence herbicidal rating: 0.0
[9]; Rate 0.1250 kg/ha
  CASOB preemergence herbicidal rating: 1.0
[9]; Rate 0.2500 kg/ha
  CASOB preemergence herbicidal rating: 5.5
[10]; Rate 0.0620 kg/ha
  AMBEL preemergence herbicidal rating: 8.5
[10]; Rate 0.1250 kg/ha
  AMBEL preemergence herbicidal rating: 9.0
[10]; Rate 0.2500 kg/ha
  AMBEL preemergence herbicidal rating: 9.0
[11]; rate 0.0320 kg/ha
  herbicidal rating, ECHORC: 0.0
[11]; rate 0.1250 kg/ha
  herbicidal rating, ECHORC: 2.0
CYPIR (Cyperus iria); rate 0.0320 kg/ha
  herbicidal rating, CYPIR: 0.0
CYPIR (Cyperus iria); rate 0.1250 kg/ha
  herbicidal rating, CYPIR: 7.0
[12]; rate 0.0320 kg/ha
  Postemergence herbicidal rating, IPOHE: 9.0
[12]; rate 0.0620 kg/ha
  Postemergence herbicidal rating, IPOHE: 9.0
[13]; rate 0.0320 kg/ha
  Postemergence herbicidal rating, CHEAL: 0.0
[13]; rate 0.0620 kg/ha
  Postemergence herbicidal rating, CHEAL: 2.0
[14]; rate 0.0320 kg/ha
  Postemergence herbicidal rating, CASOB: 0.0
[14]; rate 0.0620 kg/ha
  Postemergence herbicidal rating, CASOB: 2.0
[15]; rate 0.0320 kg/ha
  Postemergence herbicidal rating, AMBEL: 2.0
[15]; rate 0.0620 kg/ha
  Postemergence herbicidal rating, AMBEL: 9.0
[16]; Rate 0.0620 kg/ha
  GLXMAW preemergence herbicidal rating: 2.0
[16]; Rate 0.1250 kg/ha
  GLXMAW preemergence herbicidal rating: 3.5
[16]; Rate 0.2500 kg/ha
  GLXMAW preemergence herbicidal rating: 6.5
[17]; rate 0.0320 kg/ha
  herbicidal rating, CYPSE: 0.0
[17]; rate 0.1250 kg/ha
  herbicidal rating, CYPSE: 0.0
[18]; Rate 0.0620 kg/ha
  IPOHE preemergence herbicidal rating: 4.0
[18]; Rate 0.1250 kg/ha
  IPOHE preemergence herbicidal rating: 9.0
[18]; Rate 0.2500 kg/ha
  IPOHE preemergence herbicidal rating: 9.0
[19]; rate 0.0320 kg/ha
  Postemergence herbicidal rating, ECHCG: 0.0
[19]; rate 0.0620 kg/ha
  Postemergence herbicidal rating, ECHCG: 0.0
GALAP (Galium aparine) [20]; rate 0.0320 kg/ha
  Postemergence herbicidal rating, GALAP: 0.0
GALAP (Galium aparine) [20]; rate 0.0620 kg/ha
  Postemergence herbicidal rating, GALAP: 4.0

## Cn1c(C(F)(F)F)cc(=O)n(-c2cc3c(C4OCCO4)nsc3cc2F)c1=O [Compound 61, 3-[3-(1,3-dioxolan-2-yl)-6-fluoro-1,2-benzisothiazol-5-yl]-1-methyl-6-(trifluoromethyl)uracil]
[1]; rate 0.0080 kg/ha
  herbicidal rating, SAGPY: 3.0
[1]; rate 0.0320 kg/ha
  herbicidal rating, SAGPY: 8.3
[1]; rate 0.1250 kg/ha
  herbicidal rating, SAGPY: 9.0
[2]; Rate 0.0002 kg/ha
  Preemergence herbicidal rating TRZAWR: 0.0
[2]; Rate 0.0160 kg/ha
  Preemergence herbicidal rating TRZAWR: 8.5
[2]; Rate 0.0320 kg/ha
  Preemergence herbicidal rating TRZAWR: 9.0
ORYSAT (Rice, Tebonnet); Rate 0.0002 kg/ha
  Preemergence herbicidal rating ORYSAT: 0.0
ORYSAT (Rice, Tebonnet); Rate 0.0160 kg/ha
  Preemergence herbicidal rating ORYSAT: 8.7
ORYSAT (Rice, Tebonnet); Rate 0.0320 kg/ha
  Preemergence herbicidal rating ORYSAT: 9.0
[3]; [21]
  GLXMAW herbicidal rating: 9.0
ZEAMX (Corn, Field) [4]; rate 0.0320 kg/ha
  ZEAMX herbicidal rating: 5.5
ZEAMX (Corn, Field) [4]; rate 0.0620 kg/ha
  ZEAMX herbicidal rating: 5.5
ZEAMX (Corn, Field) [5]; Rate 0.0002 kg/ha
  Preemergence herbicidal rating ZEAMX: 0.0
ZEAMX (Corn, Field) [5]; Rate 0.0160 kg/ha
  Preemergence herbicidal rating ZEAMX: 8.3
ZEAMX (Corn, Field) [5]; Rate 0.0320 kg/ha
  Preemergence herbicidal rating ZEAMX: 9.0
[6]; rate 0.0320 kg/ha
  ABUTH herbicidal rating: 9.0
[6]; rate 0.0620 kg/ha
  ABUTH herbicidal rating: 9.0
GALAP (Galium aparine) [7]; Rate 0.0002 kg/ha
  Preemergence herbicidal rating GALAP: 0.0
GALAP (Galium aparine) [7]; Rate 0.0160 kg/ha
  Preemergence herbicidal rating GALAP: 8.5
GALAP (Galium aparine) [7]; Rate 0.0320 kg/ha
  Preemergence herbicidal rating GALAP: 9.0
[8]; Rate 0.0002 kg/ha
  Preemergence herbicidal rating CHEAL: 2.0
[8]; Rate 0.0160 kg/ha
  Preemergence herbicidal rating CHEAL: 9.0
[8]; Rate 0.0320 kg/ha
  Preemergence herbicidal rating CHEAL: 9.0
[9]; Rate 0.0002 kg/ha
  Preemergence herbicidal rating CASOB: 0.0
[9]; Rate 0.0160 kg/ha
  Preemergence herbicidal rating CASOB: 7.3
[9]; Rate 0.0320 kg/ha
  Preemergence herbicidal rating CASOB: 7.0
[10]; Rate 0.0002 kg/ha
  Preemergence herbicidal rating AMBEL: 0.0
[10]; Rate 0.0160 kg/ha
  Preemergence herbicidal rating AMBEL: 9.0
[10]; Rate 0.0320 kg/ha
  Preemergence herbicidal rating AMBEL: 9.0
[11]; rate 0.0080 kg/ha
  herbicidal rating, ECHORC: 8.7
[11]; rate 0.0320 kg/ha
  herbicidal rating, ECHORC: 9.0
[11]; rate 0.1250 kg/ha
  herbicidal rating, ECHORC: 9.0
CYPIR (Cyperus iria); rate 0.0080 kg/ha
  herbicidal rating, CYPIR: 8.7
CYPIR (Cyperus iria); rate 0.0320 kg/ha
  herbicidal rating, CYPIR: 9.0
CYPIR (Cyperus iria); rate 0.1250 kg/ha
  herbicidal rating, CYPIR: 9.0
[12]; rate 0.0320 kg/ha
  IPOHE herbicidal rating: 9.0
[12]; rate 0.0620 kg/ha
  IPOHE herbicidal rating: 9.0
[13]; rate 0.0320 kg/ha
  CHEAL herbicidal rating: 9.0
[13]; rate 0.0620 kg/ha
  CHEAL herbicidal rating: 9.0
[14]; [21]
  CASOB herbicidal rating: 9.0
[15]; rate 0.0320 kg/ha
  AMBEL herbicidal rating: 9.0
[15]; rate 0.0620 kg/ha
  AMBEL herbicidal rating: 9.0
[16]; Rate 0.0002 kg/ha
  Preemergence herbicidal rating GLXMAW: 0.0
[16]; Rate 0.0160 kg/ha
  Preemergence herbicidal rating GLXMAW: 9.0
[16]; Rate 0.0320 kg/ha
  Preemergence herbicidal rating GLXMAW: 9.0
[17]; rate 0.0320 kg/ha
  herbicidal rating, CYPSE: 9.0
[17]; rate 0.1250 kg/ha
  herbicidal rating, CYPSE: 9.0
[18]; Rate 0.0002 kg/ha
  Preemergence herbicidal rating IPOHE: 0.0
[18]; Rate 0.0160 kg/ha
  Preemergence herbicidal rating IPOHE: 9.0
[18]; Rate 0.0320 kg/ha
  Preemergence herbicidal rating IPOHE: 9.0
[19]; rate 0.0320 kg/ha
  ECHCG herbicidal rating: 5.0
[19]; rate 0.0620 kg/ha
  ECHCG herbicidal rating: 3.0
GALAP (Galium aparine) [20]; [21]
  GALAP herbicidal rating: 9.0
